According to the CheMixHub viscosity set:
± gives the uncertainty stated by the source.

Assay: xn = mol fraction of the nth substance listed
Settings: 101 kPa

CCCC[N+](CCCC)(CCCC)CCCC.O=[N+]([O-])[O-] + O
viscosity [mPa·s]
Settings | 298.15 K | 308.15 K | 318.15 K | 323.15 K
x1 = 0.000175 | 0.9058 ± 0.024 | 0.7311 ± 0.019 | 0.6051 ± 0.016 | 0.5548 ± 0.015
x1 = 0.0007208 | 0.9399 ± 0.025 | 0.7555 ± 0.02 | 0.6231 ± 0.017 | 0.5704 ± 0.015
x1 = 0.0009037 | 0.9512 ± 0.025 | 0.7635 ± 0.02 | 0.629 ± 0.017 | 0.5756 ± 0.015
x1 = 0.001282 | 0.9739 ± 0.026 | 0.7798 ± 0.021 | 0.6411 ± 0.017 | 0.586 ± 0.015
x1 = 0.001513 | 0.9877 ± 0.026 | 0.7898 ± 0.021 | 0.6484 ± 0.017 | 0.5923 ± 0.016
x1 = 0.002132 | 1.024 ± 0.027 | 0.8156 ± 0.022 | 0.6675 ± 0.018 | 0.609 ± 0.016
x1 = 0.00641 | 1.328 ± 0.035 | 1.024 ± 0.027 | 0.8259 ± 0.022 | 0.747 ± 0.02
x1 = 0.006556 | 1.335 ± 0.036 | 1.035 ± 0.028 | 0.8318 ± 0.022 | 0.7536 ± 0.02
x1 = 0.009813 | 1.592 ± 0.043 | 1.21 ± 0.032 | 0.9594 ± 0.025 | 0.8647 ± 0.023
x1 = 0.0134 | 1.907 ± 0.051 | 1.431 ± 0.038 | 1.107 ± 0.029 | 1.002 ± 0.027
x1 = 0.0182 | 2.346 ± 0.063 | 1.735 ± 0.046 | 1.333 ± 0.036 | 1.182 ± 0.031
x1 = 0.01938 | 2.474 ± 0.067 | 1.813 ± 0.048 | 1.399 ± 0.037 | 1.241 ± 0.033
x1 = 0.02698 | 3.292 ± 0.09 | 2.346 ± 0.063 | 1.808 ± 0.048 | 1.573 ± 0.042
x1 = 0.03856 | 4.744 ± 0.13 | 3.175 ± 0.086 | 2.424 ± 0.065 | 2.123 ± 0.056
x1 = 0.06582 | 8.699 ± 0.24 | 5.748 ± 0.16 | 4.183 ± 0.11 | 3.578 ± 0.096
x1 = 0.08624 | 12.21 ± 0.34 | 7.98 ± 0.22 | 5.611 ± 0.15 | 4.732 ± 0.13
x1 = 0.1165 | 18.05 ± 0.51 | 11.05 ± 0.3 | 7.815 ± 0.21 | 6.642 ± 0.18
